Measurements as given in patent publication US5460801A, “Inhibition of small cell lung cancer cell growth in vivo using monoclonal antibody” (The United States of America as represented by the …, priority 1993, dated 1995).
Several values for one entry are separate records, joined by “and”; a condition that tells them apart may be missing. Equal values may be shown once. Square brackets hold non-standard residues; d marks the D form. Ends that are not written are not given here. Peptide text beside a SMILES is read from it. pGlu = O=C1CC[C@@H](C(=O)O)N1

How the values were obtained:
monoclonal antibody 2A11 = assay: Indirect radioimmunoassay: 2A11 cross reactivity with solid phase synthetic peptides; assay type: binding, mouse; conditions: for % 125I-PROTEIN A BOUND (% cross reactivity with 2A11): cpm minus BSA background relative to bombesin; for % 125I-PROTEIN A BOUND (% cross reactivity with 2A11) / CPM 125I-PROTEIN A BOUND: peptides solid phased at 500 ng/well; for CPM 125I-PROTEIN A BOUND: 2A11 10 μg/ml, detection with rabbit anti mouse IgG and 125I-protein A; for 2A11 binding to the solid phase peptide (in words): indirect RIA / titration of 2A11
Experimental: Peptides (all purchased from Peninsula Laboratories) were adsorbed to 96 well polyvinyl chloride microtiter plates (Dynatech) by adding 0.05 ml of a 10 μg/ml peptide in phosphate buffered saline (PBS) for 1 hr., washing in PBS, then blocking with a 1% bovine serum albumin (BSA) PBS solution. Purified 2A11 from ascites fluid (10 μg/ml) was added, incubated, washed three times, then protein A affinity purified rabbit anti-mouse IgG (Cappel Laboratories) 1.6 μg/ml) was added, incubated, washed three times, then ^125 I-protein A (Pharmacia, labeled by chloramine T method to 40-50 μCi/μg) 40,000 cpm/well was added, incubated, washed 8× and then the wells cut out and counted in a Beckman gamma counter. All incubations were for 1 hr. at room temperature in PBS with 1% BSA in 0.025 ml volumes.
Percent cross reactivity was determined as follows:
% cross reactivity--cpm^125 I-protein A bound on peptide target minus cpm bound on BSA target divided by crop bound by bombesin minus BSA background times 100. Typically, the bombesin target caused 2A11 binding sufficient to bind about 32,776 cpm of ^125 I-protein A while the BSA background bound about 30 cpm.

solid phase 2A11 = assay: Quantitative inhibition assay: peptide inhibition of 125I-Tyr4-BN binding to solid phase 2A11; set-up: species or system mouse; conditions: for PERCENT INHIBITION of 125I-Tyr4-BN binding to solid phase 2A11: peptides at 1 nM, mean ± SD of 3 determinations
Experimental: Antibodies 2A11 or MOPC 21 were adsorbed to 96 well polyvinylchloride plates at 500 ng/well followed by saturation with 1% BSA-PBS. Unlabeled bombesin was added to triplicate wells covering a range from 1-1,000 pg and incubated for 1 hr. at room temperature. Without removing the unlabeled bombesin samples, about 12,000 cpm of ^125 I-Tyr^4 -bombesin was added to each well and incubated overnight at 4° C., washed 8× and counted. All additions were in 1% BSA-PBS in a 25 μl volume, and the washes were with 1% BSA-PBS 0.2 ml/well.

NCI-N592 = assay: Agarose clonogenic assay in serum-free HITES medium, NCI-N592; assay type: cell-based, human; conditions: 50 nM exogenous BN; SCLC lines NCI-N417D and NCI-N592
Experimental: Because of its poor colony forming efficiency in serum-free medium, NCI-N417 culture plates were supplemented with 0.1% BSA to enhance cell growth, NCI-N592 cells were seeded at 5×10^4 per plate while NCI-N417 cells were plated at 1×10^4. Plates were pre-screened to verify single cell distribution of test cells and assessed 21 days later for colony formation. Cell aggregates of greater than 50 cells were scored positive as definitive colony growth.

[1] = system: 2A11 staining of BLP in paraffin embedded tissue; assay: Immunohistochemical staining with 2A11: pre-absorption specificity test; conditions: peptide 100 μg/ml; 2A11 at 10 μg/ml
From the text: Antibody 2A11 was also used for immunohistochemical localization of BLP in paraffin embedded tissue. Using rabbit antisera it has been reported that chick proventriculus and human fetal bronchioles are rich in BN-like immunoreactivity. Use was, therefore, made of immunohistochemical staining technique of Hsu, et al. J. Histochem. Cytochem. 29, 557-5--1981, in combination with 2A11 for the light microscopic detection of BLP. Bombesinergic cells were found in chick proventriculus, human fetal bronchioles and a human SCLC. Immune staining was performed using 2A11 at 10 μg/ml.

Compound | % 125I-PROTEIN A BOUND (% cross reactivity with 2A11) (monoclonal antibody 2A11) | CPM 125I-PROTEIN A BOUND (monoclonal antibody 2A11) | PERCENT INHIBITION of 125I-Tyr4-BN binding to solid phase 2A11 (solid phase 2A11) | further results
CC[C@H](C)[C@H](NC(=O)[C@H](Cc1ccccc1)NC(=O)[C@H](C)NC(=O)[C@H](CC(=O)O)NC(=O)[C@H](CCCCN)NC(=O)[C@H](CO)NC(=O)[C@@H]1CCCN1C(=O)[C@@H]1CCC(=O)N1)C(=O)NCC(=O)N[C@@H](CC(C)C)C(=O)N[C@@H](CCSC)C(N)=O [ELEDOISIN, eledoisin] ([pGlu]PSKDAFIGLM-NH2) | < 0.02% | 24 CPM |  | % 125I-PROTEIN A BOUND (% cross reactivity with 2A11) (monoclonal antibody 2A11; listed as eledoisin): less than 0.3%
CSCC[C@H](NC(=O)[C@H](Cc1ccccc1)NC(=O)[C@H](Cc1c[nH]cn1)NC(=O)CNC(=O)[C@@H](NC(=O)[C@H](C)NC(=O)[C@H](Cc1c[nH]c2ccccc12)NC(=O)[C@H](CCC(N)=O)NC(=O)[C@@H]1CCC(=O)N1)C(C)C)C(N)=O [Litorin] |  |  | 56.5 ± 6.2% | 
CSCC[C@H](NC(=O)[C@H](Cc1ccccc1)NC(=O)[C@H](Cc1c[nH]cn1)NC(=O)CNC(=O)[C@@H](NC(=O)[C@H](C)NC(=O)[C@H](Cc1c[nH]c2ccccc12)NC(=O)[C@H](CCC(N)=O)NC(=O)[C@@H]1CCCN1C(=O)[C@@H](NC(=O)[C@@H]1CCC(=O)N1)C(C)C)C(C)C)C(N)=O [Ranatensin] ([pGlu]VPQWAVGHFM-NH2) |  |  | 54.0 ± 8.4% | 
CSCC[C@H](NC(=O)[C@H](CC(C)C)NC(=O)CNC(=O)[C@H](Cc1ccccc1)NC(=O)[C@H](Cc1ccccc1)NC(=O)[C@H](CCC(N)=O)NC(=O)[C@H](CCC(N)=O)NC(=O)[C@@H]1CCCN1C(=O)[C@H](CCCCN)NC(=O)[C@@H]1CCCN1C(=O)[C@@H](N)CCCNC(=N)N)C(N)=O [SUBSTANCE P, substance P] | < 0.02% | 31 CPM |  | % 125I-PROTEIN A BOUND (% cross reactivity with 2A11) (monoclonal antibody 2A11; listed as substance P): less than 0.3%; 2A11 binding to the solid phase peptide (in words) (monoclonal antibody 2A11): insignificant 2A11 binding; inhibition of 125I-Tyr4-BN/2A11 binding (in words) (solid phase 2A11; same concentration range as BN standard curve): incapable of inhibiting
Alytesin |  |  | 99.0 ± 5.1% | 
GRP^14-27: fragment 14-27 of gastrin releasing peptide (MYPRGNHWAVGHLM; ends and bridges not checked; UniProt P07492 37-50, looked up, fragment) | 102% | 33,379 CPM | 104.3 ± 7.7% | 
GRP^20-27: C-terminal octapeptide fragment 20-27 of gastrin releasing peptide |  |  |  | PERCENT INHIBITION of 125I-Tyr4-BN binding to solid phase 2A11 (solid phase 2A11; 0.001 µM): 98.5 ± 2.4% and 98.5%
KASSININ | < 0.02% | 37 CPM |  | % 125I-PROTEIN A BOUND (% cross reactivity with 2A11) (monoclonal antibody 2A11; listed as kassinin): less than 0.3%
PHYSALAEMIN | < 0.02% | 28 CPM |  | % 125I-PROTEIN A BOUND (% cross reactivity with 2A11) (monoclonal antibody 2A11; listed as physalaemin): less than 0.3%
bombesin | 100% |  | 100.0 ± 4.7% | 2A11 binding to the solid phase peptide (in words) (monoclonal antibody 2A11): maximal binding; CPM 125I-PROTEIN A BOUND (monoclonal antibody 2A11; listed as BOMBESIN): 32,776 CPM; CPM 125I-PROTEIN A BOUND (monoclonal antibody 2A11; listed as bombesin): about 32,776 CPM; effect of exogenous BN on 2A11 growth inhibition (in words) (NCI-N592): nullification of the 2A11 effect; effect of pre-absorption of the antibody solution on 2A11 staining (in words) [1]: staining inhibited
gastrin-releasing peptide [GASTRIN RELEASING PEPTIDE (GRP)] | 102% | 33,405 CPM | 101.0 ± 3.4% | 2A11 binding to the solid phase peptide (in words) (monoclonal antibody 2A11): maximal binding
neurotensin |  |  |  | effect of pre-absorption of the antibody solution on 2A11 staining (in words) [1]: no inhibition of staining
